Laboratory results as given in article PMC9313812, “The Pseudo‐Natural Product Rhonin Targets RHOGDI” (Angewandte Chemie (International Ed. in English), 2022).
Like-named read-outs stand apart in the source and are kept apart here.

Legend:
C3H/10T1/2 cells = assay: Osteoblast differentiation assay (ODA): purmorphamine-induced osteogenesis, alkaline phosphatase luminescence readout; type: cell-based, mouse; design: key to Osteogenesis IC50: Compounds are marked inactive when no inhibition was observed at the highest test concentration of 30 µM; settings: for Osteogenesis IC50 / IC50: 1.5 µM purmorphamine, 96 h, n=3; for Inhibition of Hh-/purmorphamine-induced osteogenesis (in words): C3H/10T1/2 cells
Method: Supplementary Table S7. Inhibition of osteogenesis assay. C3H10T1/2 cells were incubated with 1.5 µM purmorphamine and compounds or DMSO as a control for 96 h. The activity of alkaline phosphatase was assessed by means of a luminescence readout. Values for cells, which were treated with DMSO and purmorphamine, were set to 100% and data were measured in […]
concentration of 30 µM. All data are mean values of three independent experiments (n = 3) ± […]
Compound Osteogenesis IC50
(1 picture or pasted object on this page, not shown here)
NIH/3T3 cells were obtained from DSMZ, Germany (DSMZ ACC 59) and were cultured in DMEM (high glucose) supplemented with 10% heat-inactivated FCS, 2 mM L -glutamine and 1 mM sodium pyruvate. Shh -LIGHT2 cells (NIH/3T3 cells stably transfected with a Gli-responsive firefly luciferase reporter plasmid and a pRL-TK constituitive Renilla luciferase expression vector)[4] were cultured in the same culturing medium supplemented with 400 μg ml −1 G418 and 150 μg ml −1 Zeocin as selecting agents. The murine osteoblasts C3H/10T1/2 (ATCC CCL-226) were obtained from ATCC, USA and were cultured in DMEM (high glucose) supplemented with 10% heat-inactivated FCS, 6 mM L -glutamine, 1 mM sodium pyruvate. HEK293T cells (ATCC, England) were grown in DMEM containing 10% FBS, 100 U ml −1 penicillin and 0.1 mg ml −1 streptomycin. All cell lines were maintained at 37 °C and 5% CO 2 in a humidified atmosphere. All the cell lines were regularly assayed for mycoplasma and were confirmed to be mycoplasma-free. Transfection of DNA constructs and siRNAs were performed using FuGENE HD (Promega), Lipofectamine® LTX (Invitrogen) and DharmaFECT™ (GE Healthcare) transfection reagent according to the manufacturer’s […]
Osteoblast differentiation assay
The osteoblast differentiation assay was performed by the Compound Management and Screening Center (COMAS) in Dortmund, Germany. C3H/10T1/2 cells were seeded (800 per well) in white 384-well plates or (6000 per well) in 96-well plates. After incubation for 16 h, compounds or DMSO were added to the cells using the acoustic nanoliter dispenser ECHO 520 (Labcyte) and osteogenesis was induced with 1.5 µM purmorphamine. Plates were incubated for 96 h at 37 °C and 5% CO2. Alkaline phosphatase activity was measured by replacing the medium with osteogenesis-lysis buffer (lysis buffer: 100 mM Tris pH 9.5, 250 mM NaCl, 25 mM MgCl2, 1% Triton X-100, sterile filtered) containing 1:100 chemiluminescent substrate CDP-Star® (Promega, 384-well plates: 35 µL, 96-well plates: 50 µL) for one hour in the dark at 25 °C. In 384-well plates, the luminescence was monitored using the Paradigm plate reader (Molecular Devices, USA), whereas Spark plate reader (Tecan, Austria) was used to measure luminescence in 96-well plates. Dose-response analyses were performed for all hit compounds […]
using a three-fold dilution series starting from a concentration of 30 μM. Half-maximal inhibitory concentrations (IC50) were calculated using the Quattro software suite (Quattro Research, Planegg, Germany) or GraphPad Prism 7 (GraphPad, USA).
The effect of test compounds on the viability of C3H/10T1/2 cells was determined by CellTiter-Glo Luminescence cell viability assay (Promega). Cells were treated as described for the osteogenesis assay prior to addition of the CellTiter-Glo® reagent according to manufacturer’s protocol. Compounds causing at least a 50% reduction in the osteogenesis assay and retaining cell viability of at least 80% were considered as hits. Dose-response analyses were performed for all hit compounds using a three-fold dilution series starting from a concentration of 30 μM. Half-maximal inhibitory concentrations (IC50) were calculated using the Quattro software suite (Quattro Research GmbH). […]

Shh-LIGHT2 cells = assay: GLI-dependent reporter gene assay (RGA); type: cell-based; settings: Shh Light2; Figure 2a; mean of three independent experiments
Method: using a three-fold dilution series starting from a concentration of 30 μM. Half-maximal inhibitory concentrations (IC50) were calculated using the Quattro software suite (Quattro Research, Planegg, Germany) or GraphPad Prism 7 (GraphPad, USA). […]
GLI-dependent reporter gene assay
Shh-LIGHT2 cells were seeded (2.5×10^4 per well) in 96-well plates. After incubation for 16 h, medium was replaced by low serum-containing medium (0.5% FCS) supplemented with 1.5 μM purmorphamine and various concentrations of the compounds or DMSO as a control and cells were incubated for 48 h. […]

[1] = Table S7, mean ± SD, highest test concentration 30 µM
[2] = Mus musculus, C3H 10T1/2, Table S7, mean ± SD, highest test concentration 30 µM, read-out: Osteogenesis IC50
[3] = Table S13, Rac, Cdc42 and ROCK inhibitors, read-out: Osteogenesis IC50 ± SD
[4] = Mus musculus, C3H 10T1/2, Table S13, Rac, Cdc42 and ROCK inhibitors, read-out: Osteogenesis IC50 ± SD

Row | Compound | Osteogenesis IC50 (C3H/10T1/2 cells; [1]) | other results
1 | COC(=O)C12NC(c3ccc(Br)cc3)(C3C(=O)N(C)C(=O)C31)C1C(=O)N(c3ccccc3)C(=O)C12 (stereo not shown) [5a] | inactive | –
2 | COC(=O)C12NC(c3ccc(C)cc3)(C3C(=O)N(C)C(=O)C31)C1C(=O)N(c3ccccc3)C(=O)C12 (stereo not shown) [5b] | inactive | –
3 | COC(=O)c1ccc(C23NC(C(=O)OC)(C4C(=O)N(C)C(=O)C42)C2C(=O)N(c4ccccc4)C(=O)C23)cc1 (stereo not shown) [5c] | inactive | –
4 | COC(=O)C12NC(c3ccc(Cl)cc3)(C3C(=O)N(C)C(=O)C31)C1C(=O)N(c3ccccc3)C(=O)C12 (stereo not shown) [5d] | inactive | –
5 | CCCN1C(=O)C2C(C1=O)C1(c3ccc(Br)cc3)NC2(C(=O)OC)C2C(=O)N(c3ccccc3)C(=O)C21 (stereo not shown) [5e] | inactive | –
6 | COC(=O)C12NC(c3ccc(Br)cc3)(C3C(=O)N(c4ccccc4)C(=O)C31)C1C(=O)N(C3CCCCC3)C(=O)C12 (stereo not shown) [5f] | inactive | –
7 | COC(=O)C1(C2CC(=O)N(c3ccccc3)C2=O)N=C(c2ccc(Br)cc2)C2C(=O)N(C)C(=O)C21 (stereo not shown) [6a] | inactive | –
8 | COC(=O)C1(C2CC(=O)N(c3ccccc3)C2=O)N=C(c2ccc(C(F)(F)F)cc2)C2C(=O)N(C)C(=O)C21 (stereo not shown) [6b] | inactive | –
9 | COC(=O)C1(C2CC(=O)N(c3ccccc3)C2=O)N=C(c2ccc(F)cc2)C2C(=O)N(C)C(=O)C21 (stereo not shown) [6c] | inactive | –
10 | COC(=O)C1(C2CC(=O)N(c3ccccc3)C2=O)N=C(c2ccc(C(C)(C)C)cc2)C2C(=O)N(C)C(=O)C21 (stereo not shown) [6d] | inactive | –
11 | COC(=O)C1(C2CC(=O)N(c3ccccc3)C2=O)N=C(c2cccc(OC)c2)C2C(=O)N(C)C(=O)C21 (stereo not shown) [6e] | inactive | –
12 | COC(=O)C1(C(CC(=O)c2ccc(Br)cc2)c2ccccc2)N=C(c2ccc(Br)cc2)C2C(=O)N(C)C(=O)C21 (stereo not shown) [7b] | inactive | Inhibition of Hh-/purmorphamine-induced osteogenesis (in words) (C3H/10T1/2 cells): abolished activity
13 | COC(=O)C1(CCC(C)=O)N=C(c2ccc(Br)cc2)C2C(=O)N(C)C(=O)C21 (stereo not shown) [7c] | – | Inhibition of Hh-/purmorphamine-induced osteogenesis (in words) (C3H/10T1/2 cells): active; IC50 (C3H/10T1/2 cells; [2]): 6200 ± 1300 nM; IC50 (Shh-LIGHT2 cells): 8 µM
14 | COC(=O)C1(CCC(=O)C=Cc2ccccc2)N=C(c2ccc(Br)cc2)C2C(=O)N(C)C(=O)C21 (stereo not shown) [7e] | – | IC50 (C3H/10T1/2 cells; [2]): 2810 ± 400 nM; IC50 (Shh-LIGHT2 cells): 4.24 µM
15 | COC(=O)C1(CCC(C)=O)N=C(c2ccc(Br)cc2)C2C(=O)N(c3ccccc3)C(=O)C21 (stereo not shown) [7f] | inactive | Inhibition of Hh-/purmorphamine-induced osteogenesis (in words) (C3H/10T1/2 cells): activity was lost
16 | COC(=O)C1(C=CC(=O)c2ccccc2)N=C(c2ccc(Br)cc2)C2C(=O)N(C)C(=O)C21 (stereo not shown) [7g] | – | IC50 (C3H/10T1/2 cells; [2]): 3130 ± 200 nM; IC50 (Shh-LIGHT2 cells): 6.15 µM
17 | COC(=O)C=C(C(=O)OC)C1(C(=O)OC)N=C(c2ccc(Br)cc2)C2C(=O)N(C)C(=O)C21 (stereo not shown) [7h] | inactive | –
18 | COC(=O)C=C(C(=O)OC)C1(C(=O)OC)N=C(c2ccc(Br)cc2)C2C(=O)N(c3ccccc3)C(=O)C21 (stereo not shown) [7i] | inactive | –
19 | O=c1cc(CN2CCOCC2)occ1OCCCCCSc1ccnc2cc(C(F)(F)F)ccc12 [EHT 1864, reference compound] | – | IC50 (C3H/10T1/2 cells; [3]): > 2000 nM
20 | CCn1c2ccccc2c2cc(Nc3ccnc(NCCCN4CCOCC4)n3)ccc21 [EHop-016, reference compound] | – | IC50 (C3H/10T1/2 cells; [3]): 881 ± 80 nM
21 | COc1cc(C2=NC(C)=C(C(=O)Nc3ccc4[nH]ncc4c3)C(c3ccc(Cl)cc3F)N2)ccn1 (stereo not shown) [GSK534911A, reference compound] | – | IC50 (C3H/10T1/2 cells; [4]): 1550 ± 500 nM
22 | Cc1cncc2cccc(S(=O)(=O)N3CCCNC[C@@H]3C)c12 [H-1152, reference compound] | – | IC50 (C3H/10T1/2 cells; [3]): 2870 nM
23 | COC(=O)[C@@]1([C@H](CC(=O)c2ccc(Br)cc2)c2ccc(C(=O)NCCOCCOCCNC(=O)OC(C)(C)C)cc2)N=C(c2ccc(Br)cc2)[C@H]2C(=O)N(C)C(=O)[C@H]21 [S10b] | inactive | –
24 | CN(C)CCOc1cc(-c2cn[nH]c2)ccc1NC(=O)C1COc2ccccc2O1 (stereo not shown) [SR-3677, reference compound] | – | IC50 (C3H/10T1/2 cells; [4]): 1720 ± 100 nM
25 | Cc1cc(C)nc(NS(=O)(=O)c2ccc(NC(=S)NC(=O)COc3ccc(Br)cc3Cl)cc2)n1 [ZCL278, reference compound] | – | Osteogenesis, activity at 2 µM (C3H/10T1/2 cells; Table S13, 2 µM, DMSO + purmorphamine = 100%): 75%
